Values after ≈ are worked out from the molar mass of the structure shown. Numbered stars: 1 amine (or outer) side, 2 acyl side, 3 side chain; on linkers, the order of the positions; unused ones are H or OH. Bridge positions count the residues as written; N and C are the ends. Square brackets hold non-standard residues; d marks the D form. Ends that are not written are not given here. Peptide text beside a SMILES is read from it. TBMB = c1c(C[*:1])cc(C[*:3])cc1C[*:2]
Columns and labels:
B. subtilis ATCC 6633 = experiment: microbe, parasite or virus in culture
Experimental: (§1) The L-peptides identified from five different phage display libraries were catalogued as described previously and selected sequences were synthesized in D-enantiomeric form by SPPS for further investigation in several biological assays.
(§2) MICs were determined according to a 96-well microdilution protocol outlined by the Clinical and Laboratory Standard Institute (CLSI) guideline with modifications for peptide antibiotics reported by Wiegand et al.^35 Two-fold serial peptide dilutions were performed to go from 2560 μg/ml to 5 μg/ml in0.2% BSA and 0.01% acetic acid buffer in 96-well polypropylene plates (COSTAR, #3879). Dilution of bacterial suspensions (1:200) of different bacterial strains that were grown until 0.5 McFarland standard were prepared to obtain a final inoculum concentration of 8×10^5 CFU/ml in Mueller-Hinton broth.

E. coli ATCC 25992 = experiment: microbe, parasite or virus in culture
Experimental: as §1, §2

E. faecalis ATCC 29121 = experiment: microbe, parasite or virus in culture
Experimental: as §1, §2

[1] = test system: Methicillin-resistant S. aureus (MRSA) ATCC 43300; experiment: microbe, parasite or virus in culture
Experimental: as §1, §2

S. aureus ATCC 6538 = experiment: microbe, parasite or virus in culture
Experimental: as §1, §2

[2] = test system: high level vancomycin resistant E. faecium (vanA) ATCC 51559; experiment: microbe, parasite or virus in culture
Experimental: as §1, §2

[3] = test system: low level vancomycin resistant E. faecium (vanB) ATCC 51299; experiment: microbe, parasite or virus in culture
Experimental: as §1, §2

[4] = test system: several Gram-positive strains (with one Gram-negative strain as control); experiment: MIC / antibiotic susceptibility, strains not singled out; format: cell-based; conditions: vancomycin-sensitive bacteria
Experimental: as §1, §2

[5] = test system: human red blood cells (hRBC); experiment: Hemolytic activity; format: cell-based; conditions: concentrations up to 256 μg/ml
Experimental: Fresh red human blood cells (hRBC) were washed and centrifuged at 3000 rpm for 5 min at 4° C. with PBS until a clear solution was obtained. Two-fold serial dilutions of each peptide in PBS from 0.5 μg/ml to 256 μg/ml were incubated with 0.25% (v/v) hRBC suspension at 37° C. for 1 h, and then centrifuged for 5 min at 3500 rpm in 96-well plate. 50 μl of the supernatant from each well was diluted with 50 μl pure water, and the OD at 415 nm was measured using microplate reader. Melittin at the same concentrations (200 μg/ml for complete lysis) was used as a positive control. Percent hemolysis was calculated according to the equation: […]
where complete hemolysis was defined as the average hemolysis of all wells containing a final concentration of melittin ranging from 50 to 400 μg/ml. Experiments were performed as triplicates at different days.

S. aureus = experiment: Time-kill kinetic assay; format: cell-based; conditions: 10×MIC, 5×MICs
Experimental: The bacteria-killing kinetics of peptides with S. aureus was measured at 5×MICs, and vancomycin was used as a positive control. An overnight culture of bacterial cells was re-suspended in fresh MH broth at density of 10^7 cells/ml, and cultured with peptides at 37° C. Viable colony forming units (CFUs) were counted by performing tenfold serial dilutions of the aliquot sample at intervals of 0, 1, 2, 4, 8, 12, and 24 hours after inoculation, and plated on MHB agar plates. Time-kill curves were plotted as Log10 (cfu ml^−1) versus time functions.

[6] = test system: cell wall biosynthesis in S. aureus; experiment: Accumulation of UDP-N-acetylmuramyl-pentapeptide precursor; format: cell-based; conditions: 10-fold MIC, 1 h
Source text: We next examined the effect of P14 and P15 on cell wall biosynthesis in live bacteria. Blockade of this biosynthetic pathway causes accumulation of the water soluble intracellular intermediate lipid II precursor UDP-MurNAc-L-Ala-D-γ-Glu-L-Lys-D-Ala-D-Ala.^40 This intermediate is detectable after extraction from the cytosol in response to antibiotic administration by chromatographic methods.
Accumulation of UDP-N-acetylmuramyl-pentapeptide precursor from S. aureus Accumulation of peptidoglycan precursor of S. aureus […] was analyzed in the presence of peptide antibiotics. Bacteria were grown at 37° C. till OD600 of 0.5 was attained. Ten times MICs of peptide antibiotics were added per ml of grown bacterial culture and allowed to stand for 1 h. After cooling the cells on ice, they were harvested by centrifugation at 4° C. for 15 min. Bacterial cells were suspended in distilled water, and then slowly stirred into boiling water for 15 min. The suspension was allowed to cool first at room temperature, then on ice. After centrifugation at 4° C. for 1 h, the supernatant was lyophilized. The lyophilized sample was dissolved in water, and pH was adjusted to 2 by addition of 20% H3PO4. The white precipitate was removed by centrifugation, and the supernatant was immediately subjected to RP-HPLC analysis and MWs were assessed by MALDI-TOF mass spectroscopy.

HeLa cells = experiment: Mammalian cytotoxicity (MTT) assay; conditions: 24 h, b121: concentrations up to 256 μg/ml
Experimental: Cervical cancer cells (HeLa) were cultured in Dulbecco's Modified Eagle's medium (DMEM) (Invitrogen #11995-073) supplemented with 10% bovine calf serum at 37° C., 5% CO2, and seeded (5×10^3 cells/well) in 96-well plate flat-bottomed plate for 24 h before the assay. […] After washing the cells with PBS, the cells were subjected to the standard yellow tetrazolium (3-(4,5-dimethylthiazol-2-yl)-2,5-diphenyltetrazolium bromide (MTT) assay protocol at final concentration of 0.5 mg/ml for 4 h in a humidified 5% CO2 atmosphere at 37° C. MTT solution was then aspirated, and the purple formazan crystals were resuspended in DMSO by incubation for 5 min at 37° C. The absorbance at 540 nm was then read using a microplate reader. Viability control (100% viability) was assigned to samples with only HeLa cells and DMEM media, 0% viability was assigned to samples with 1% added Triton-X-100 and no peptide. Experiments were performed as triplicates at different days.

[7] = Table 6, high level vancomycin resistant E. faecium ATCC51559
[8] = Table 6, low level vancomycin resistant E. faecium ATCC51299
[9] = Table 5, E. faecalis ATCC 29121
[10] = Table 5, high level vancomycin resistant E. faecium ATCC 51559
[11] = Table 5, low level vancomycin resistant E. faecium ATCC 51299

| Molecule | MIC B. subtilis (B. subtilis ATCC 6633; Table 6, B. subtilis ATCC6633) [µg/mL] | MIC E. coli (E. coli ATCC 25992; Table 6, E. Coli ATCC25992) [µg/mL] | MIC E. faecalis (E. faecalis ATCC 29121; Table 6, E. faecalis ATCC29121) [µg/mL] | MIC MRSA ([1]; Table 6, MRSA ATCC43300) [µg/mL] | MIC S. aureus (S. aureus ATCC 6538; Table 6, S. aureus ATCC6538) [µg/mL] | MIC VRE (vanA) [2, 7] [µg/mL] | activity against vanB / low-level vancomycin-resistant strain [3] | MIC VRE (vanB) [3, 8] [µg/mL] | activity against vancomycin-sensitive bacterial strains [4] | lysis / toxicity on red blood cells [5] | MIC B. subtilis (B. subtilis ATCC 6633; Table 5, B. subtilis ATCC 6633) [µg/mL] | MIC E. coli (E. coli ATCC 25992; Table 5, E. coli ATCC 25992) [µg/mL] | MIC E. faecalis (E. faecalis ATCC 29121; [9]) [µg/mL] | MIC VRE (vanA) [2, 10] [µg/mL] | killing kinetics / bactericidal activity (S. aureus) | accumulation of UDP-MurNAc-pentapeptide [6] | MIC VRE (vanB) [3, 11] [µg/mL] | also measured |
| --- | --- | --- | --- | --- | --- | --- | --- | --- | --- | --- | --- | --- | --- | --- | --- | --- | --- | --- |
| CGGGICRTHNC [P18] | 16 | >256 | 128 | 32 | 16 | >256 | moderate activity | 128 | excellent activity | neither caused lysis of erythrocytes |  |  |  |  |  |  |  |  |
| CQTDVCQRTIC ([dC][dQ][dT][dD][dV][dC][dQ][dR][dT][dI][dC]; not fully specified (bridges); also: bicyclic, ring places and kind not given here) [P14, bicyclic D-peptide (library BC-A)] |  |  |  |  |  |  | high antibacterial activity |  | high antibacterial activity | neither caused lysis of erythrocytes | 8 | >256 | 32 | 128 | bactericidal activity similar to vancomycin | accumulation of UDP-MurNAc-pentapeptide at levels similar to vancomycin |  | MIC against MRSA [1]: 32 µg/mL; MIC against S. aureus (S. aureus ATCC 6538): 8 µg/mL; activity against vanA / high-level vancomycin-resistant strain [2]: high antibacterial activity; MIC against vanB vancomycin-resistant Enterococci [3]: 32 µg/mL |
| CSLITQCGGVGC ([dC][dS][dL][dI][dT][dQ][dC]GG[dV]G[dC]; not fully specified (bridges); also: bicyclic, ring places and kind not given here) [P15, bicyclic D-peptide (library BC-B)] |  |  |  |  |  |  |  |  | similarly high activity as P14 | neither caused lysis of erythrocytes | 8 | >256 | 16 | >256 | bactericidal activity similar to vancomycin | accumulation of UDP-MurNAc-pentapeptide at levels similar to vancomycin | 128 | MIC MRSA ([1]; Table 5, MRSA ATCC 43300): 32 µg/mL; MIC S. aureus (S. aureus ATCC 6538; Table 5, S. aureus ATCC 6538): 8 µg/mL |
| CC[C@H](C)[C@H](NC(=O)CN)C(=O)NCC(=O)N[C@@H](C)C(=O)N[C@H](C(=O)N[C@@H](CC(C)C)C(=O)N[C@@H](CCCCN)C(=O)N[C@H](C(=O)N[C@@H](CC(C)C)C(=O)N[C@H](C(=O)N[C@H](C(=O)NCC(=O)N[C@@H](CC(C)C)C(=O)N1CCC[C@H]1C(=O)N[C@@H](C)C(=O)N[C@@H](CC(C)C)C(=O)N[C@H](C(=O)N[C@@H](CO)C(=O)N[C@@H](Cc1c[nH]c2ccccc12)C(=O)N[C@H](C(=O)N[C@@H](CCCCN)C(=O)N[C@@H](CCCNC(=N)N)C(=O)N[C@@H](CCCCN)C(=O)N[C@@H](CCCNC(=N)N)C(=O)N[C@@H](CCC(N)=O)C(=O)N[C@@H](CCC(N)=O)C(N)=O)[C@@H](C)CC)[C@@H](C)CC)[C@@H](C)O)[C@@H](C)O)C(C)C)C(C)C [P2, Melittin] |  |  |  |  |  |  |  |  |  |  |  |  |  |  |  |  |  | cytotoxicity on HeLa cells (HeLa cells): toxic |
| CSCC[C@H]1NC(=O)[C@@H](CC(=O)O)NC(=O)[C@H]2CSCc3cc(cc(c3)CSC[C@H](C(N)=O)NC(=O)[C@@H](Cc3c[nH]cn3)NC(=O)[C@@H](CC(C)C)NC1=O)CSC[C@@H](N)C(=O)N[C@H](CCC(N)=O)C(=O)N[C@H](Cc1ccc(O)cc1)C(=O)N[C@H](CC(N)=O)C(=O)N[C@H](CC(=O)O)C(=O)N2 [P16, COYNDCDMLHC] (H-[dC][dQ][dY][dN][dD][dC][dD][dM][dL][dH][dC]-NH2; linker 1-6-11 via TBMB) | 64 (≈ 43.9 µM) | >256 | 128 (≈ 87.8 µM) | 128 (≈ 87.8 µM) | 64 (≈ 43.9 µM) | >256 |  | >256 |  |  |  |  |  |  |  |  |  |  |
| CC(C)C[C@@H](NC(=O)[C@H](N)C(C)C)C(=O)N[C@@H](C(=O)N[C@H](CCCNC(=N)N)C(=O)N[C@H](CS)C(=O)N[C@H](CS)C(=O)NCC(N)=O)[C@H](C)O [P6, VLTRCCG] (H-[dV][dL][dT][dR][dC][dC]G-NH2) |  |  |  |  |  |  |  |  |  |  |  |  |  |  |  |  | >256 | MIC B. subtilis (B. subtilis ATCC 6633; ATCC 6633): 128 µg/mL (≈ 171 µM); MIC E. coli (E. coli ATCC 25992; ATCC 25992): >256 µg/mL; MIC E. faecalis (E. faecalis ATCC 29121; ATCC 29121): >256 µg/mL; MIC MRSA ([1]; ATCC 43300): >256 µg/mL; MIC S. aureus (S. aureus ATCC 6538; ATCC 6538): 128 µg/mL (≈ 171 µM); MIC VRE (vanA) ([2]; ATCC 51559): >256 µg/mL |
